Data reported in ChEMBL document CHEMBL6134844, “Development of Next-Generation Antimalarial Acridones with Radical Cure Potential” (J Med Chem, 2025).
Calls of active or inactive are those of the source. No cut-off for these calls is given here.

What was measured:
Plasmodium falciparum [1] = test: Antiplasmodial activity against asexual blood-stage (ABS) CQ-sensitive Plasmodium falciparum D6 infected in human erythrocytes assessed as reduction in fluorescence measured after 72 hrs by Malaria SYBR Green I-based Fluorescence (MSF) assay; type: functional, organism-based; details: D6, Erythrocyte
Plasmodium falciparum [2] = test: Antiplasmodial activity against asexual blood-stage (ABS) MDR Plasmodium falciparum Dd2 infected in human erythrocytes assessed as reduction in fluorescence measured after 72 hrs by Malaria SYBR Green I-based Fluorescence (MSF) assay; type: functional, organism-based; details: Dd2, Erythrocyte
Plasmodium falciparum [3] = test: Antiplasmodial activity against asexual blood-stage (ABS) ATV-resistant clinical isolate Plasmodium falciparum Tm90-C2B infected in human erythrocytes assessed as reduction in fluorescence measured after 72 hrs by Malaria SYBR Green I-based Fluorescence (MSF) assay; type: functional, organism-based; details: Erythrocyte
HepG2 = test: Cytotoxicity against human HepG2 cells assessed as cell viability measured after 48 hrs by MTT assay; type: functional, cell-based; details: HepG2, 48 h
Plasmodium cynomolgi [4] = test: (§1) Antiplasmodial activity against hypnozoite Plasmodium cynomolgi B strain infected in Macaca mulatta hepatocytes incubated with sporozoite containing salivary gland homogenate obtained from dissected Anopheles dirus mosquitoes (infected with Plasmodium cynomolgi B strain) treatment started on day 4 post infection and continued daily for 4 days into fresh changed media until day 8 assessed as Liver stage (LS) activity by measuring prophylactic mode by immunofluorescent staining analysis; type: functional, organism-based; details: Hepatocyte
Plasmodium cynomolgi [5] = test: as §1, with “schizont” for “hypnozoite”; type: functional, organism-based; details: Hepatocyte
Plasmodium cynomolgi [6] = test: as §1, with “radical cure” for “prophylactic”; type: functional, organism-based; details: Hepatocyte
Plasmodium cynomolgi [7] = test: as §1, with “schizont” for “hypnozoite”, “radical cure” for “prophylactic”; type: functional, organism-based; details: Hepatocyte
[8] = as §1, with “Selectivity index, ratio of CC50 for Macaca mulatta hepatocytes to IC50 for antiplasmodial” for “Antiplasmodial”; type: toxicity, cell-based; details: rhesus monkey, read-out: Selectivity Index
[9] = as §1, with “Selectivity index, ratio of CC50 for Macaca mulatta hepatocytes to IC50 for antiplasmodial” for “Antiplasmodial”, “schizont” for “hypnozoite”; type: toxicity, cell-based; details: rhesus monkey, read-out: Selectivity Index
[10] = as §1, with “Selectivity index, ratio of CC50 for Macaca mulatta hepatocytes to IC50 for antiplasmodial” for “Antiplasmodial”, “radical cure” for “prophylactic”; type: toxicity, cell-based; details: rhesus monkey, read-out: Selectivity Index
[11] = as §1, with “Selectivity index, ratio of CC50 for Macaca mulatta hepatocytes to IC50 for antiplasmodial” for “Antiplasmodial”, “schizont” for “hypnozoite”, “radical cure” for “prophylactic”; type: toxicity, cell-based; details: rhesus monkey, read-out: Selectivity Index
Plasmodium yoelii [12] = test: In vivo antiplasmodial activity against asexual blood-stage (ABS) Plasmodium yoelii MRA-428 infected in 4-day suppression CF1 mouse model assessed as reduction in parasitemia treated 24 hrs post infection daily measured on day 4; type: functional
Plasmodium yoelii [13] = test: In vivo antiplasmodial activity against asexual blood-stage (ABS) Plasmodium yoelii MRA-428 infected in 4-day suppression CF1 mouse model assessed as reduction in parasitemia by measuring protection at 10 mg/kg, po treated 24 hrs post infection daily for 4 days relative to control; type: functional; set-up: scale not given: the % may be the effect or the level left
Plasmodium yoelii [14] = test: In vivo antiplasmodial activity against asexual blood-stage (ABS) Plasmodium yoelii MRA-428 infected in 4-day suppression CF1 mouse model assessed as reduction in parasitemia by measuring cured mouse at 60 mg/kg, po single dose treated 24 hrs post infection; type: functional, organism-based
Plasmodium yoelii [15] = test: In vivo antiplasmodial activity against asexual blood-stage (ABS) Plasmodium yoelii MRA-428 infected in 4-day suppression CF1 mouse model assessed as reduction in parasitemia by measuring cured mouse at 100 mg/kg, po single dose treated 24 hrs post infection; type: functional, organism-based
[16] = Toxicity in CF1 mouse infected with asexual blood-stage (ABS) Plasmodium yoelii MRA-428 assessed as clinical toxicity at 0.3 to 30 mg/kg, po treated 24 hrs post infection measured after 4 days; type: organism-based; details: in vivo, dose 0.3-30 mg/kg
[17] = Toxicity in CF1 mouse infected with asexual blood-stage (ABS) Plasmodium yoelii MRA-428 assessed as behavioural change at 0.3 to 30 mg/kg, po treated 24 hrs post infection measured after 4 days; type: organism-based; details: in vivo, dose 0.3-30 mg/kg
Hepatocyte = test: (§2) Cytotoxicity against Macaca mulatta hepatocytes assessed as cell viability measured after 48 hrs by MTT assay; type: toxicity, cell-based; details: rhesus monkey, 48 h
[18] = human, microsomes, 1 h
[19] = mouse, microsomes, 1 h
[20] = as §2; type: toxicity, cell-based, Hepatocyte; details: rhesus monkey
in vitro = details: human, liver microsomes
Plasmodium yoelii [21] = test: In vivo antiplasmodial activity against asexual blood-stage (ABS) Plasmodium yoelii MRA-428 infected in 4-day suppression CF1 mouse model assessed as reduction in parasitemia by measuring protection at 30 mg/kg, po treated 24 hrs post infection daily measured up to 28 days; type: functional, organism-based; details: time <= 28.0 day
Plasmodium yoelii [22] = test: In vivo antiplasmodial activity against asexual blood-stage (ABS) Plasmodium yoelii MRA-428 infected in 4-day suppression CF1 mouse model assessed as reduction in parasitemia by measuring cured mouse at 100 mg/kg, po treated 24 hrs post infection daily for 4 days; type: functional, organism-based
[23] = Cmax in male ICR-CD1 mouse liver at 80 mg/kg, po; type: ADME, organism-based
[24] = Tmax in male ICR-CD1 mouse plasma at 80 mg/kg, po; type: ADME, organism-based
[25] = Half life in male ICR-CD1 mouse liver at 80 mg/kg, po; type: ADME, organism-based
[26] = AUClast in male ICR-CD1 mouse liver at 80 mg/kg, po; type: ADME, organism-based
[27] = AUCextrap in male ICR-CD1 mouse liver at 80 mg/kg, po; type: ADME, organism-based
[28] = AUCextrap in male ICR-CD1 mouse plasma at 80 mg/kg, po; type: ADME, organism-based
[29] = AUC(0 to infinity) in male ICR-CD1 mouse liver at 80 mg/kg, po; type: ADME, organism-based
[30] = Apparent oral clearance in male ICR-CD1 mouse liver at 80 mg/kg, po; type: ADME, organism-based
Plasmodium berghei [31] = test: In vivo antiplasmodial activity against luciferase expressing liver stage Plasmodium berghei ANKA MRA-868 sporozoites infected in Albino C57BL/6 mouse model assessed as protection at 4 mg/kg, po daily measured 24 to 72 hrs by real-time In Vivo Imaging System (IVIS); type: functional, organism-based; details: time lower 24.0 hrs, time upper […]
Plasmodium berghei [32] = test: In vivo antiplasmodial activity against luciferase expressing liver stage Plasmodium berghei ANKA MRA-868 sporozoites infected in Albino C57BL/6 mouse model assessed as protection at 10 mg/kg, po daily measured 24 to 72 hrs by real-time In Vivo Imaging System (IVIS); type: functional; details: time lower 24.0 hrs, time upper […]
Plasmodium falciparum [33] = test: Ex vivo antiplasmodial activity against clinical isolate Plasmodium falciparum isolated from Ugandan measured after 72 hrs by growth inhibition assay; type: functional, organism-based
Plasmodium yoelii [34] = test: In vivo antiplasmodial activity against asexual blood-stage (ABS) Plasmodium yoelii MRA-428 infected in 4-day suppression CF1 mouse model assessed as reduction in parasitemia by measuring cured mouse at 80 mg/kg, po treated 24 hrs post infection daily for 4 days; type: functional, organism-based

Structure (SMILES)	IC50 (Plasmodium falciparum [1]) [nM]	IC50 (Plasmodium falciparum [2]) [nM]	IC50 (Plasmodium falciparum [3]) [nM]	IC50 (HepG2) [nM]	IC50 (Plasmodium cynomolgi [4]) [nM]	IC50 (Plasmodium cynomolgi [5]) [nM]	IC50 (Plasmodium cynomolgi [6]) [nM]	IC50 (Plasmodium cynomolgi [7]) [nM]	selectivity ratio at 96 h [8]	selectivity ratio at 96 h [9]	selectivity ratio at 96 h [10]	selectivity ratio at 96 h [11]	ED50 (Plasmodium yoelii [12]) [mg/kg]	ED90 (Plasmodium yoelii [12]) [mg/kg]	Activity [16]	Activity [17]	CC50 (Hepatocyte) [nM]	t1/2 [18] [h]	CLH [19] [µL/min/mg]	CC50 at 48 h [20] [nM]	other results
O=c1c2ccc(Oc3ccc(OC(F)(F)F)cc3)cc2[nH]c2ccc(F)c(Cl)c12	1.03	0.84	52.8	> 200000	530	80	6750	3450	16.7	111	1.31	2.57	0.29	0.33	Non-toxic	Non-toxic	8870	> 1	11.6		Activity (Plasmodium yoelii [13]): 100%; Activity (Plasmodium yoelii [14]): Active; Activity (Plasmodium yoelii [15]): Active
O=c1c2ccc(Oc3cccc(C(F)(F)F)c3)cc2[nH]c2cc(F)c(Cl)cc12	5.19	3.87	59.4	> 200000	1390	360	> 20000	> 20000	> 14.4	> 55.6									14.2	> 20000	half-life at 1 h (in vitro): > 1 h
O=c1c2ccc(OCc3cccc(OC(F)(F)F)c3)cc2[nH]c2cc(Cl)cc(F)c12	0.077	0.01	0.977	> 200000	250	20	710	620	12.6	165	4.66	5.34			Non-toxic	Non-toxic	3310	> 1	57.4		Activity (Plasmodium yoelii [21]): Active; Out Of 4 - 3 Mouse Cured; Activity (Plasmodium yoelii [22]): Active
O=c1c2ccc(Oc3cccc(OC(F)(F)F)c3)cc2[nH]c2cc(F)c(Cl)cc12	3.57	3.15	61.2	> 200000	870	120	> 20000	> 20000	> 23	> 167									< 3.125	> 20000	half-life at 1 h (in vitro): > 1 h
O=c1c2cc(F)c(Oc3ccc(OC(F)(F)F)cc3)cc2[nH]c2cc(Cl)cc(F)c12	0.00074	0.00042	0.475	> 200000	160	40	560	340	3.62	14.5	1.04	1.71	0.16	0.3	Non-toxic	Non-toxic	580	> 1	16.1		Cmax [23]: 7980 ng/mL; Tmax [24]: 4 h; half-life [25]: 20.9 h; AUC(0-t) [26]: 40000 ng·h/mL; AUC [27]: 3.14%; AUC [28]: 64.6 ng·h/mL; AUC(0-inf) [29]: 41300 ng·h/mL; CL/F [30]: 1.05 mL/min/kg; Activity (Plasmodium berghei [31]): Not active; Out Of 5 - 0 Mouse Cured; Activity (Plasmodium berghei [32]): Not active; Out Of 5 - 0 Mouse Cured; IC50 (Plasmodium falciparum [33]): 0.957 nM
O=c1c2cc(Oc3ccc(OC(F)(F)F)cc3)ccc2[nH]c2cc(Cl)cc(F)c12	4.18	4.27	599	> 200000	330	30	> 20000	> 20000	> 60.6	> 667				1.98	Non-toxic	Non-toxic	> 20000		45.4		Activity (Plasmodium yoelii [34]): Active
